# Test results: patent publication US6770596B1, “Fused tricyclic compounds, process for their preparation, and herbicidal compositions containing them” (Ishihara Sangyo Kaisha Ltd., priority 2002, dated 2004)
# Legend:
# Format in all cases: in vivo
# [1] = tested on: velvetleaf (Abutilon theophrasti, ABT); test: Pre-emerge test, velvetleaf; details: 250 g ai/ha, 14 days after application, rating scale 0-100 (0 no damage, 100 complete death)
# Summary of the method: (§1)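 Read-out is a visual 0–100 phytotoxicity rating taken 14 days after treatment, where 100 means all plants dead. Compounds were applied pre-emergence in acetone by track sprayer at rates from 8 to 1000 g ai/ha onto pots sown the previous day.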
# [2] = tested on: sicklepod (Cassia obtusifolia, CAO); test: Pre-emerge test, sicklepod; details: 250 g ai/ha, 14 days after application, rating scale 0-100 (0 no damage, 100 complete death)
# Summary of the method: as §1
# [3] = tested on: soybean (Glycine max L., var. Pella 86, SOY); test: Pre-emerge test, crop damage soybean
# Summary of the method: (§2)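 Scores at 14 days after treatment use a 0–100 scale, where 0 is no damage and 100 is death of all plants. Treatments were acetone solutions sprayed at 8–1000 g ai/ha onto soil sown one day prior.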
# [4] = tested on: common ragweed (Ambrosia artemisiifolia L., AML); test: Pre-emerge test, common ragweed; details: 250 g ai/ha, 14 days after application, rating scale 0-100 (0 no damage, 100 complete death)
# Summary of the method: as §1
# [5] = tested on: johnsongrass (Sorghum halepense, SOH); test: Pre-emerge test, johnsongrass; details: 250 g ai/ha, 14 days after application, rating scale 0-100 (0 no damage, 100 complete death)
# Summary of the method: as §1
# [6] = tested on: ivyleaf morningglory (Ipomoea hederacea, IPH); test: Pre-emerge test, ivyleaf morningglory; details: 250 g ai/ha, 14 days after application, rating scale 0-100 (0 no damage, 100 complete death)
# Summary of the method: as §1
# [7] = tested on: large crabgrass (Digitaria sanguinalis, DIS); test: Post-emerge test, large crabgrass; details: 250 g ai/ha, 14 days after application, rating scale 0-100 (0 no damage, 100 complete death)
# Summary of the method: (§3)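 Seeds were planted in 10 cm pots of sandy loam soil mix 8-21 days ahead. Once the plants reached the 2-3 leaf stage, the compound was sprayed at 8-1000 g ai/ha (acetone, 187 l/ha, 0.25% v/v non-ionic surfactant). Damage was rated 0-100 after 14 days.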
# [8] = tested on: lambsquarters (Chenopodium album, CHA); test: Post-emerge test, lambsquarters; details: 250 g ai/ha, 14 days after application, rating scale 0-100 (0 no damage, 100 complete death)
# Summary of the method: as §3
# [9] = tested on: soybean (Glycine max L., var. Pella 86, SOY); test: Post-emerge test, crop damage soybean
# Summary of the method: as §3
# [10] = tested on: barnyardgrass (Echinachloa crus-galli, ECC); test: Pre-emerge test, barnyardgrass; details: 250 g ai/ha, 14 days after application, rating scale 0-100 (0 no damage, 100 complete death)
# Summary of the method: as §1
# [11] = tested on: large crabgrass (Digitaria sanguinalis, DIS); test: Pre-emerge test, large crabgrass; details: 250 g ai/ha, 14 days after application, rating scale 0-100 (0 no damage, 100 complete death)
# Summary of the method: as §1
# [12] = tested on: wheat (Triticum aestivum); test: Post-emerge test, crop damage wheat
# Summary of the method: as §3
# [13] = tested on: upland rice (Oryza sp., var.Tebonnet, RICE); test: Post-emerge test, crop damage upland rice
# Summary of the method: as §3
# [14] = tested on: upland rice (Oryza sp., var.Tebonnet, RICE); test: Pre-emerge test, crop damage upland rice
# Summary of the method: as §2
# [15] = tested on: redroot pigweed (Amaranthus retroflexus, AMR); test: Post-emerge test, redroot pigweed; details: 250 g ai/ha, 14 days after application, rating scale 0-100 (0 no damage, 100 complete death)
# Summary of the method: as §3
# [16] = tested on: common ragweed (Ambrosia artemisiifolia L., AML); test: Post-emerge test, common ragweed; details: 250 g ai/ha, 14 days after application, rating scale 0-100 (0 no damage, 100 complete death)
# Summary of the method: as §3
# [17] = tested on: barnyardgrass (Echinachloa crus-galli, ECC); test: Post-emerge test, barnyardgrass; details: 250 g ai/ha, 14 days after application, rating scale 0-100 (0 no damage, 100 complete death)
# Summary of the method: as §3
# [18] = tested on: sicklepod (Cassia obtusifolia, CAO); test: Post-emerge test, sicklepod; details: 250 g ai/ha, 14 days after application, rating scale 0-100 (0 no damage, 100 complete death)
# Summary of the method: as §3
# [19] = tested on: green foxtail (Setaria viridis, SEV); test: Post-emerge test, green foxtail; details: 250 g ai/ha, 14 days after application, rating scale 0-100 (0 no damage, 100 complete death)
# Summary of the method: as §3
# [20] = tested on: field corn (Zea mays L., var. Dekalb 535, CORN); test: Post-emerge test, crop damage field corn
# Summary of the method: as §3
# [21] = tested on: field corn (Zea mays L., var. Dekalb 535, CORN); test: Pre-emerge test, crop damage field corn
# Summary of the method: as §2
# [22] = tested on: cocklebur (Xanthium strumariunt, XAS); test: Post-emerge test, cocklebur; details: 250 g ai/ha, 14 days after application, rating scale 0-100 (0 no damage, 100 complete death)
# Summary of the method: as §3
# [23] = tested on: wheat (Triticum aestivum); test: Pre-emerge test, crop damage wheat
# Summary of the method: as §2
# [24] = tested on: cocklebur (Xanthium strumariunt, XAS); test: Pre-emerge test, cocklebur; details: 250 g ai/ha, 14 days after application, rating scale 0-100 (0 no damage, 100 complete death)
# Summary of the method: as §1
# [25] = tested on: redroot pigweed (Amaranthus retroflexus, AMR); test: Pre-emerge test, redroot pigweed; details: 250 g ai/ha, 14 days after application, rating scale 0-100 (0 no damage, 100 complete death)
# Summary of the method: as §1
# [26] = tested on: green foxtail (Setaria viridis, SEV); test: Pre-emerge test, green foxtail; details: 250 g ai/ha, 14 days after application, rating scale 0-100 (0 no damage, 100 complete death)
# Summary of the method: as §1
# [27] = tested on: lambsquarters (Chenopodium album, CHA); test: Pre-emerge test, lambsquarters; details: 250 g ai/ha, 14 days after application, rating scale 0-100 (0 no damage, 100 complete death)
# Summary of the method: as §1
# [28] = tested on: johnsongrass (Sorghum halepense, SOH); test: Post-emerge test, johnsongrass; details: 250 g ai/ha, 14 days after application, rating scale 0-100 (0 no damage, 100 complete death)
# Summary of the method: as §3
# [29] = tested on: ivyleaf morningglory (Ipomoea hederacea, IPH); test: Post-emerge test, ivyleaf morningglory; details: 250 g ai/ha, 14 days after application, rating scale 0-100 (0 no damage, 100 complete death)
# Summary of the method: as §3
# [30] = tested on: velvetleaf (Abutilon theophrasti, ABT); test: Post-emerge test, velvetleaf; details: 250 g ai/ha, 14 days after application, rating scale 0-100 (0 no damage, 100 complete death)
# Summary of the method: as §3
# [31] = var. Pella 86, Glycine max (soybean), in vivo, 14 days
# [32] = Triticum aestivum (wheat), in vivo, 14 days
# [33] = var. Tebonnet, Oryza sp. (upland rice), in vivo, 14 days
# [34] = var. Dekalb 535, Zea mays (field corn), in vivo, 14 days
# [35] = pre-emerge, 250 g ai/ha, 14 days after application, rating scale 0-100 (0 no damage, 100 complete death)
# [36] = post-emerge, 250 g ai/ha, 14 days after application, rating scale 0-100 (0 no damage, 100 complete death)
Compound,Pre-emerge Herbicidal Activity ABT (phytotoxicity rating) [1],Pre-emerge Herbicidal Activity CAO (phytotoxicity rating) [2],Pre-emerge Herbicidal Activity AML (phytotoxicity rating) [4],Pre-emerge Herbicidal Activity SOH (phytotoxicity rating) [5],Pre-emerge Herbicidal Activity IPH (phytotoxicity rating) [6],Post-emerge Herbicidal Activity DIS (phytotoxicity rating) [7],Post-emerge Herbicidal Activity CHA (phytotoxicity rating) [8],Pre-emerge Herbicidal Activity ECC (phytotoxicity rating) [10],Pre-emerge Herbicidal Activity DIS (phytotoxicity rating) [11],Post-emerge Herbicidal Activity AMR (phytotoxicity rating) [15],Post-emerge Herbicidal Activity AML (phytotoxicity rating) [16],Post-emerge Herbicidal Activity ECC (phytotoxicity rating) [17],Post-emerge Herbicidal Activity CAO (phytotoxicity rating) [18],Post-emerge Herbicidal Activity SEV (phytotoxicity rating) [19],Post-emerge Herbicidal Activity XAS (phytotoxicity rating) [22],Pre-emerge Herbicidal Activity XAS (phytotoxicity rating) [24],Pre-emerge Herbicidal Activity AMR (phytotoxicity rating) [25],Pre-emerge Herbicidal Activity SEV (phytotoxicity rating) [26],Pre-emerge Herbicidal Activity CHA (phytotoxicity rating) [27],Post-emerge Herbicidal Activity SOH (phytotoxicity rating) [28],also measured
"C[C@H]1Oc2cc(F)c(-c3nn(C)c(OC(F)F)c3Cl)c3c2N(CC(=O)N3)C1=O [1-55, 8-[-4-Chloro-5-(difluoromethoxy)-1-methyl-1H-pyrazol-3-yl)-9-fluoro-2-R-methyl-5H-pyrazino[1,2,3-de]-1,4-benzoxazine-3,6(2H, 7H)-dione]",99,100,100,100,100,35,100,100,100,100,85,95,99,99,100,95,100,100,100,50,"Pre-emerge crop damage SOY (phytotoxicity rating) [3, 31]: 60; Post-emerge crop damage SOY (phytotoxicity rating) [9, 31]: 75; Post-emerge crop damage WHEAT (phytotoxicity rating) [12, 32]: 50; Post-emerge crop damage RICE (phytotoxicity rating) [13, 33]: 75; Pre-emerge crop damage RICE (phytotoxicity rating) [14, 33]: 40; Post-emerge crop damage CORN (phytotoxicity rating) [20, 34]: 15; Pre-emerge crop damage CORN (phytotoxicity rating) [21, 34]: 20; Pre-emerge crop damage WHEAT (phytotoxicity rating) [23, 32]: 3; Post-emerge Herbicidal Activity IPH (phytotoxicity rating) [29]: 100; Post-emerge Herbicidal Activity ABT (phytotoxicity rating) [30]: 100"
CC1Oc2cc(F)c(-c3nn(C)c(C(F)(F)F)c3Cl)c3c2N(C1=O)C(C)C(=O)N3 (mixture of isomers) [1-50],100,99,100,100,90,70,100,99,99,100,70,99,75,70,100,75,100,100,100,55,"Pre-emerge crop damage SOY (phytotoxicity rating) [3, 35]: 60; Post-emerge crop damage SOY (phytotoxicity rating) [9, 36]: 75; Post-emerge crop damage WHEAT (phytotoxicity rating) [12, 36]: 35; Post-emerge crop damage RICE (phytotoxicity rating) [13, 36]: 65; Pre-emerge crop damage RICE (phytotoxicity rating) [14, 35]: 50; Post-emerge crop damage CORN (phytotoxicity rating) [20, 36]: 20; Pre-emerge crop damage CORN (phytotoxicity rating) [21, 35]: 85; Pre-emerge crop damage WHEAT (phytotoxicity rating) [23, 35]: 25; Post-emerge Herbicidal Activity IPH (phytotoxicity rating) [29]: 100; Post-emerge Herbicidal Activity ABT (phytotoxicity rating) [30]: 100"
